Data on 3 molecules can be found in ChEMBL document CHEMBL1133423, “Synthesis, DNA binding, topoisomerases inhibition and cytotoxic properties of 4-arylcarboxamidopyrrolo-2-carboxyanilides” (Bioorg Med Chem Lett, 2000).

In assay [1] the test system is Nucleic Acid. Kind of assay: Binding affinity of compound for calf thymus DNA was determined. The following applies: Bos taurus. Type of assay: nucleic-acid assay.
In assay [2] the test system is HL-60. Kind of assay: Antiproliferative activity of compound against HL60 leukemia cells. Type of assay: functional, cell-based. The following applies: Homo sapiens.

As usually defined, the IC50 is the concentration needed to halve the response being measured. Higher therefore signals weaker potency.

Molecules are shown by their SMILES.

For the molecule `Cn1cc(NC(=O)c2ccc(CN)cc2)cc1C(=O)Nc1ccc(CN)cc1`, in assay [1], the Ka came to 680000 M⁻¹. The same molecule displayed a half-maximal inhibitory concentration (IC50) in assay [2] of 5.4 µM.

Consider `NCc1ccc(NC(=O)c2cc(NC(=O)c3ccc(CN)cc3)c[nH]2)cc1`, for which the Ka in assay [1] was 950000 M⁻¹. The molecule further came in with an IC50 in assay [2] of 1.7 µM.

`NCc1ccc(NC(=O)c2cc(NC(=O)c3ccc(CN)cc3)cn2Cc2ccccc2)cc1`: the Ka in assay [1] turned out to be 340000 M⁻¹. Moreover, the concentration for half-maximal inhibition (IC50) in assay [2] worked out at 8.2 µM.
